Assay results: patent publication EP3095787A1, “[…] ACTIVE COMPOUNDS AS DAG-LIPASE INHIBITORS” (Universiteit Leiden, priority 2015, dated 2016)
“Also recorded” adds a separate entry of the source.

How the values were obtained:
DAGL-β = target: T1, DAGL-β (Mus musculus, UniProt Q91WC9); test: Competitive ABPP with MB064 in mouse spleen membrane proteome; format: biochemical; conditions: 10 µM compound, MB064 1.0 µM
T1 construct: from tissue; host or cells: mouse spleen membrane proteome
T1 sequence (Q91WC9 1-669): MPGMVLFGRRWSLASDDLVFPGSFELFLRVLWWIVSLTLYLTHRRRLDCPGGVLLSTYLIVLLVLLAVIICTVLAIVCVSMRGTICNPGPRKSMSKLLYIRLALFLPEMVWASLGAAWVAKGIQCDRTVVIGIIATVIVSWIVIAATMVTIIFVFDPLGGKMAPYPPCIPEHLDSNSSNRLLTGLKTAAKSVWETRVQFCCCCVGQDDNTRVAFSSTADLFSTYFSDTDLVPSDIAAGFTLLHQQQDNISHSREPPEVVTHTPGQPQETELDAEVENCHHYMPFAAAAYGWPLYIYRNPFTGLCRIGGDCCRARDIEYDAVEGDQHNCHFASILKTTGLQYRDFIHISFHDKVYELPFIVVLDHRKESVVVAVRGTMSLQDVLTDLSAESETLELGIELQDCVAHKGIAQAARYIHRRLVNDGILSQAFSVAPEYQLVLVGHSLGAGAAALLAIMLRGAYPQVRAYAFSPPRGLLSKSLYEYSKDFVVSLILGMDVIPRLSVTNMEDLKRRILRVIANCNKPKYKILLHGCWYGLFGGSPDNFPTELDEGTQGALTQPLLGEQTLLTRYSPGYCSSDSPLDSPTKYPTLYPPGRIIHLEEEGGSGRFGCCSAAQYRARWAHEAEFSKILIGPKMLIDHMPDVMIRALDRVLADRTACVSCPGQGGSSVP

serine hydrolases = test: Chemoproteomics with THL-biotin (MB108) and FP-biotin in mouse brain membrane proteome: other serine hydrolases; format: biochemical; conditions: 10 µM, 30 min
Method: Since, the human serine hydrolase family contains approximately 200 family members, the selectivity in brain proteome was examined in a broader and more detailed manner. […] Mouse brain proteome (500 μL, 2.0 mg/mL) membrane or soluble fraction was incubated with vehicle (DMSO) or inhibitor (10 μM) in DMSO for 30 minutes at rt. The proteome was labeled with MB108 (2.5 μM, 30 minutes, rt) or FP-Biotin (5 μM, 30 minutes, 37 °C). Subsequently the labeling reaction was quenched and excess probe was removed by chloroform methanol precipitation. Precipitated proteome was suspended in 500 μL 6M Urea/25 mM ammonium bicarbonate and allowed to incubate for 15 minutes. 5 μL (1 M DTT) was added and the mixture was heated to 65 °C for 15 minutes. […] The sample was diluted with 6 mL PBS. 100 μL of 50% slurry of Avidin-Agarose from egg white (Sigma-Aldrich) was washed with PBS and added to the proteome sample. The beads were incubated with the proteome > 2h. The beads were isolated by centrifugation and washed with 0.5% (wt/vol) SDS and PBS (3x). […] Tryptic peptides were analyzed on a Surveyor nanoLC system (Thermo) hyphenated to a LTQ-Orbitrap mass spectrometer (Thermo). […] Fragmented precursor ions that were measured twice within 10 s were dynamically excluded for 60 s and ions with z < 2 or unassigned were not analyzed. […]

## Cc1ccc(-c2cnc3nc(C(=O)CCCCCc4ccccc4)oc3c2)cc1 [Compound 25, 1-(6-(p-Tolyl)oxazolo[4,5-b]pyridin-2-yl)-6-phenylhexan-1-one]
DAGL-β
  Native DAGL-β activity (labeling by MB064): can block labeling of endogenously expressed DAGL-β; also recorded: could also be inhibited
Serine hydrolases
  labeling of other serine hydrolases: no other targets were detected; also recorded: not of any other serine hydrolase identified
